{"source": "patent US10440955B2", "about": "“Methods comprising a biocidal polyamine” (Curza Global, LLC, priority 2013, dated 2019)", "key": {"MRSA": {"tested_on": "MRSA", "experiment": "MIC against MRSA (as defined by CLSI)", "format": "cell-based", "details": "Staphylococcus aureus, FIG. 25", "description": "To determine the MIC of the polyamine chains alone and the synthesized compounds against MRSA and P. aeruginosa ATCC 27853, a modified protocol from the Clinical and Laboratory Standards Institute (CLSI) guideline M26-A was used. […] All data was collected using cation adjusted MHB for standardization.\nAs mentioned, MRSA and P. aeruginosa ATCC 27853 were grown on Columbia blood agar plates prior to experimentation. From the blood agar plates, a 0.5 McFarland standard was made of each isolate. This equated to approximately 5×10^7 cells/mL for the MRSA isolate and approximately 3×10^7 cells/mL for the P. aeruginosa ATCC 27853 isolate. Of the 0.5 McFarland stock solution, 50 μL were added to MHB. […] All tests were performed such that a final volume of 5 mL of MHB were obtained. This provided a final bacterial concentration of approximately 5×10^5 cells/mL.\nEach sample was incubated in glass test tubes at 37° C. for 24 hours, then plated in duplicate on tryptic soy agar (TSA) using a 10-fold dilution series. TSA plates were further incubated 24 hours at 37° C. The number of colony forming units (CFU) that grew were counted in order to calculate the number of bacteria that were present per mL in the original MHB solution."}, "A. baumannii biofilms [1]": {"tested_on": "A. baumannii biofilms", "experiment": "EBEC, high number biofilms on PEEK membranes, 10^9 to 10^2 CFU/PEEK membrane in 24 hours", "format": "cell-based, Acinetobacter baumannii", "details": "Table 3B c4, group head missing"}, "biofilm of MRSA": {"tested_on": "biofilm of MRSA", "experiment": "Combination treatment: dispersal of a biofilm", "format": "cell-based, Staphylococcus aureus", "details": "[…] mixed with chlorhexidine gluconate at […]; biofilm of 10^11 cells; within one hour"}, "P. aeruginosa biofilms": {"tested_on": "P. aeruginosa biofilms", "experiment": "MBEC, MBEC Inoculation Tray (Innovotech), to 10^2 CFU/peg in 24 hours", "format": "cell-based", "details": "Pseudomonas aeruginosa; Table 3A c5; group head missing, probably MBEC; read-out: MICs (μg/mL): P. aeruginosa (second P. aeruginosa)", "description": "To determine the MBEC of each polyamine compound, the MBEC Inoculation Tray by Innovotech, formerly known as the Calgary biofilm device, was used. Within this device, biofilms grow on the surface of polystyrene pegs, 96 of which are attached to a lid. These pegs are inserted into a flat bottom 96-well plate. In this instance, the MBEC of a molecule was defined as the concentration of compound (in μg/mL) required to reduce 10^5 or 10^6 CFU/peg (biofilm levels varied by isolate) to 10^2 CFU/peg in a 24-hour period.\nFollowing the manufacturer's guidelines, biofilms were grown on the surface of each peg by first making a 0.5 McFarland of each isolate. The 0.5 McFarland was diluted 1:100 in CAMHB. Into each well of a flat bottom 96-well plate, 150 μL of broth were pipetted. The plate was shaken at 100 rpm for 24 hours (P. aeruginosa and A. baumannii) or 48 hours (MRSA). The pegs were then placed into a separate flat bottom 96-well plate for 10 seconds with 200 μL of phosphate buffered saline (PBS) in each well to remove nonadherent cells. The lid was then placed into a 96-well plate that contained varying concentrations of antimicrobial with 200 μL per well. The plate was incubated for 24 hours at 37° C. after which time 100 μL of broth were plated on TSA. TSA plates were incubated 24 hours at 37° C. and the number of CFU counted to calculate the CFU/peg. […]"}, "A. baumannii biofilms [2]": {"tested_on": "A. baumannii biofilms", "experiment": "MBEC, MBEC Inoculation Tray (Innovotech), to 10^2 CFU/peg in 24 hours", "format": "cell-based, Acinetobacter baumannii", "details": "Table 3B c1, group head missing, probably MBEC"}, "MRSA biofilm": {"tested_on": "MRSA biofilm", "experiment": "MBEC assay (Calgary Biofilm Device), eradication of 100% of detectable biofilm (Example 2)", "format": "cell-based, Staphylococcus aureus", "details": "eradicate 100% of detectable biofilm", "description": "In addition to determining the MIC, the minimum biofilm eradication concentration (MBEC) of PBC-51 was also determined. The MBEC was determined using the MBEC assay, formerly known as the Calgary Biofilm Device, developed by Innovotech. In this instance, the MBEC was defined as the amount of antimicrobial required to eradicate 100% of detectable biofilm after being grown in the MBEC device. To grow the biofilms within this device, 150 μL of solution containing a concentration of 10^5 cells/mL were inoculated into each well of a 96-well plate. A lid containing 96 pegs was placed onto the plate and incubated for 24 hours at 37° C. while being shaken at 110 rpm. Biofilms developed on the surface of the polystyrene pegs within the 96-well plate. After 24 hours, each peg contained between 10^5 and 10^6 cells in well-established biofilms. The lid with pegs was transferred to a 96-well plate that contained 200 μL of varying concentrations of the compound and was incubated at 37° C. for an additional 24 hours. The plate was then sonicated, and the biofilms quantified using a 10-fold dilution series to determine the MBEC."}, "MRSA biofilms": {"tested_on": "MRSA biofilms", "experiment": "EBEC, biofilms on PEEK membranes, eradication of all detectable bacteria (Example 2)", "format": "cell-based, Staphylococcus aureus", "details": "~2×10^11 cells per PEEK membrane, eradicate all detectable bacteria", "description": "The fourth test that was performed was the effective biofilm eradication concentration (EBEC). To determine the EBEC, biofilms of MRSA and P. aeruginosa ATCC 27853 were grown on the surface of PEEK membranes using a previously established protocol. Briefly, 500 mL of brain heart infusion (BHI) broth were inoculated with 10^5 cells/mL of MRSA or P. aeruginosa. BHI broth was placed into a membrane biofilm reactor and placed on a hot plate set at 34° C. for 24 hours with a stir bar rotating at 130 rpm. Following the initial 24-hour growth period, a 10% BHI broth solution was flowed through the reactor at a rate of 6.944 mL/min for another 24 hours. After 48 hours of growth, each PEEK membrane had biofilm growth on it. In this experiment, there were ˜2×10^11 cells of MRSA per PEEK membrane and ˜2×10^10 cells of P. aeruginosa per PEEK membrane. The EBEC was defined as the concentration of the compound that was required to eradicate all detectable amounts (100%) of bacteria within the biofilms."}, "[3]": {"tested_on": "various bacterial cell cultures", "experiment": "Antimicrobial activity of polyamines in hydrogel on agar lawns", "format": "cell-based", "details": "0.5% CZ compound in 0.5% sodium hyaluronate gel, 500 uL on TSA lawn, 37 C for 24 hours", "description": "A 0.5 McFarland standard of each bacteria was made, then individual lawns of bacteria spread onto the surface of tryptic soy agar (TSA). 500 uL of the suspended gel were placed on the center of each lawn. Plates were incubated at 37 C for 24 hours, then imaged. Images of the resulting gels are shown in FIGS. 30A to 30I show the effects of the polyamines CZ-86, CZ-100, and CZ-110 on various bacterial cell cultures.\nThe hydrogel that was used for those images is a LifeCore gel with 1% sodium hyaluronate (1% Sodium Hyaluronate Solution Part #82). The CZ compound was suspended in water at 1% (w/w) concentration and combined with the LifeCore gel 1:1 for a final product that contained 0.5% sodium hyaluronate and 0.5% CZ compound."}, "[4]": {"details": "Acinetobacter baumannii, read-out: MICs (μg/mL) II: A. baumannii"}}, "note": "“And” between values parts separate entries of the source, which are not always exact repeats. Equal values may be shown once. Where a name gives a salt, the structure may show the parent alone.", "data": [{"compound": "NCCCNCCCNCc1ccccc1", "note": "[CZ-7, benzylnorspermidine]", "values": [{"measurement": "MIC", "setting": "MRSA", "value": "> 1200", "unit": "µg/mL"}, {"measurement": "MIC", "setting": "A. baumannii biofilms [1]; [4]", "value": "> 5000", "unit": "µg/mL"}, {"measurement": "dispersal of a biofilm of MRSA", "setting": "biofilm of MRSA", "value": "significant dispersal"}, {"measurement": "MIC", "setting": "P. aeruginosa biofilms", "value": "> 5000", "unit": "µg/mL"}, {"measurement": "MIC", "setting": "A. baumannii biofilms [2]; [4]", "value": "> 500", "unit": "µg/mL"}]}, {"compound": "CN[C@H](CC(C)C)C(=O)N[C@H]1C(=O)N[C@@H](CC(N)=O)C(=O)N[C@H]2C(=O)N[C@H]3C(=O)N[C@H](C(=O)N[C@H](C(=O)O)c4cc(O)cc(O)c4-c4cc3ccc4O)[C@H](O)c3ccc(c(Cl)c3)Oc3cc2cc(c3O[C@@H]2O[C@H](CO)[C@@H](O)[C@H](O)[C@H]2O[C@H]2C[C@](C)(N)[C@H](O)[C@H](C)O2)Oc2ccc(cc2Cl)[C@H]1O", "note": "[vancomycin, reference compound]", "values": [{"measurement": "MBEC (μg/mL/μM)", "setting": "MRSA biofilm", "value": "> 500 μg/mL and > 336.50 μM"}, {"measurement": "EBEC (μg/mL/μM)", "setting": "MRSA biofilms", "value": "> 20,000 μg/mL and > 13,460 μM"}]}, {"compound": "Polymyxin B sulfate [reference compound]", "values": [{"measurement": "MICs (μg/mL) II: A. baumannii", "setting": "A. baumannii biofilms [1]", "value": "1,000 μg/mL"}, {"measurement": "MICs (μg/mL) II: A. baumannii", "setting": "A. baumannii biofilms [2]", "value": 50, "unit": "µg/mL"}]}, {"compound": "CC(C)CNCCCNCCCNCc1cc(CNCCCNCCCNCC(C)C)cc(-c2ccccc2)c1", "note": "[CZ-86, N^1,N^1′-([1,1′-biphenyl]-3,5-diylbis(methylene))bis(N^3-(3-(isobutylamino)propyl)propane-1,3-diamine), hydrochloride salt]", "values": [{"measurement": "zones of inhibition in bacterial lawns", "setting": "[3]", "value": "created zones of inhibition"}]}]}
